Reference: patent US20080076824A1, “Compounds That Inhibit Replication Of Human Immunodeficiency Virus” (priority 2004, published 2008)
Where “and” joins values, the source holds several entries; their conditions need not be identical. Equal values may be shown once. Where a name gives a salt, the structure may show the parent alone. Read-outs that look alike come from different tables or passages of the source.

What was measured:
[1] = Microdose study of 14C-AlphaHGA in healthy volunteers, urine pharmacokinetics (AMS); type: in vivo, human; conditions: for cumulative recovery of the dose in the urine over 24 hr: range; for AUCTmax / AUClast / Dlast / Dmax / Tmax / Tfirst / Tlast: urine
Experimental: In this example, the pharmacokinetics (PK) and oral bioavailability of AlphaHGA in adult healthy volunteers following a single ‘microdose’ in a sequence-randomized, cross-over study design (two periods 7 days apart) was determined. Clinical experiments were conducted with low-level radiolabelled (^14C) AlphaHGA administered intravenously (IV) orally (PO) with serial blood and urine samples were collected for concentration analysis utilizing accelerator mass spectrometry (AMS).
Accordingly, eight subjects were enrolled into a single dose cross-over study. The subjects were randomly assigned to one of two administration sequences. Subjects that were assigned to sequence 1 received AlphaHGA as an oral preparation first (Period 1) followed by the intravenous (IV) preparation 1 week later (Period 2). Subjects assigned to sequence 2 received AlphaHGA as an intravenous preparation first followed by the oral preparation 1 week later. Four subjects were assigned to sequence 1 and four subjects were assigned to sequence 2.
For both oral and IV doses subjects were administered 100 nCi (3.7 Kbq) of alphaHGA, which was determined to contain 1.602888×10ˆ6 fmol of ^14C. The specific activity of each dose was 46.619 MBq/mol (or 1.260 mCi/mol). A stock blend of ^14C-labelled alphaHGA was produced prior to the first study period. The actual formulations used for dosing were prepared on the morning prior to each study period. The infusion was a single bolus injection with both the infusion and flush were completed in less than 30 seconds.
Urine samples were collected at pre-dose and during post-dose time intervals: 0 to 4, 4 to 8, 8 to 12, 12 to 16, and 16 to 24 hours. All urine collections were obtained. Cumulative urine voidings for the specified time intervals were collected in standard collection containers without additional modifiers or preservatives
Plasma specimens (30 μL) were analyzed directly via the combustive procedure without further chemical manipulation. For the purposes of calculating ^14C concentration per volume of plasma, a general carbon content of 45% (dry mass) was applied. The urine was mixed with equal volumes (0.5 mL) of a sucrose carbon diluent solution (200 g/L) and mixed by inversion in a disposable polypropylene centrifuge tube. A 20-μL sample was graphitized for AMS analysis according to standard procedures. The mass fraction of the urine represented in the measured sample was inverted and multipled by the ^14C contents above background derived from the AMS measurement to calculate the ^14C content in the total urine void. A density value of 1 g/mL for urine was assumed to calculate its volume from the recorded masses.
Area-under-the-plasma-concentration-time curve from time zero to the last quantified concentration (AUClast), was calculated by the linear trapezoidal method from the observed concentrations. Area-under-the concentration-time curve from time zero to infinity (AUCinf) was obtained as the sum of AUClast and the extrapolation term Clast/λz, where Clast denotes the last observed quantifiable concentration. The percentage of AUCinf obtained by extrapolation (AUC % extrap) was calculated as [(AUCinf−AUClast)/AUCinf]*100. It should be noted that the area for the IV plasma data will result in an underestimation of the AUC in the first trapezoid because the concentration at time 0 was set to 0 and there is not reasonable way to impute a value at time 0. Area-under-the-concentration-time curve from time zero to the maximum concentration (AUCTmax) was calculated by the linear trapezoidal method. […]. This approach was necessary given the nature of the parameters requested by the sponsor.
Values for the following PK parameters were estimated from urine levels of AlphaHGA during the various time intervals. […]

[2] = system: HIV-1 (IIIB); experiment: microbe, parasite or virus in culture; conditions: Human immunodeficiency virus 1, IIIB, CCRF-CEM
[3] = system: HIV (SF2 virus); experiment: HIV infectivity assay, SF2-infected H9 cells, visible syncytia; type: cell-based; conditions: for Visible syncytia: H9/SF2, day 11
[4] = route iv, individual subjects 1-8, period 1 or 2, hydrochloride, dosing period 1
[5] = route iv, individual subjects 1-8, period 1 or 2, hydrochloride, dosing period 2
[6] = route po, individual subjects 1-8, period 1 or 2, dosing period 1
[7] = route po, individual subjects 1-8, period 1 or 2, dosing period 2
[8] = route po, individual subjects 1-8, period 1 or 2, hydrochloride, dosing period 1
[9] = route po, individual subjects 1-8, period 1 or 2, hydrochloride, dosing period 2

NC(=O)C(N)O (stereo not drawn) [AlphaHGA, α-Hydroxy-glycinamide hydrochloride]
cumulative recovery of the dose in the urine over 24 hr, mean ([1]; IV administration): 63.7 | cumulative recovery of the dose in the urine over 24 hr ([1]; IV administration): 35-100% | cumulative recovery of the dose in the urine over 24 hr ([1]; oral administration): 34-100% | AUCTmax ([1]; Period 1, Max): 748180 fmol·h | AUClast ([1]; Period 1, Max): 2934335 fmol·h | Dlast ([1]; Period 1, Max): 41355 fmol | Dmax ([1]; Period 1, Max): 374090 fmol | AUCTmax ([1]; Period 1, Mean): 654984 fmol·h | AUClast ([1]; Period 1, Mean): 2575235 fmol·h | Dlast ([1]; Period 1, Mean): 29774 fmol | Dmax ([1]; Period 1, Mean): 327492 fmol | AUCTmax ([1]; Period 1, Min): 459180 fmol·h | AUClast ([1]; Period 1, Min): 2239453 fmol·h | Dlast ([1]; Period 1, Min): 19395 fmol | Dmax ([1]; Period 1, Min): 229590 fmol | AUCTmax ([1]; Period 2, Max): 1882171 fmol·h | AUClast ([1]; Period 2, Max): 6993866 fmol·h | Dlast ([1]; Period 2, Max): 133040 fmol | Dmax ([1]; Period 2, Max): 941085 fmol | AUCTmax ([1]; Period 2, Mean): 1437891 fmol·h | AUClast ([1]; Period 2, Mean): 6007590 fmol·h | Dlast ([1]; Period 2, Mean): 98450 fmol | Dmax ([1]; Period 2, Mean): 718945 fmol | AUCTmax ([1]; Period 2, Min): 1207722 fmol·h | AUClast ([1]; Period 2, Min): 5220702 fmol·h | Dlast ([1]; Period 2, Min): 48888 fmol | Dmax ([1]; Period 2, Min): 603861 fmol | AUCTmax ([1]; Route iv, Max): 1489152 fmol·h | AUClast ([1]; Route iv, Max): 6540408 fmol·h | Dlast ([1]; Route iv, Max): 114767 fmol | Dmax ([1]; Route iv, Max): 744576 fmol | AUCTmax ([1]; Route iv, Mean): 964045 fmol·h | AUClast ([1]; Route iv, Mean): 4155954 fmol·h | Dlast ([1]; Route iv, Mean): 61864 fmol | Dmax ([1]; Route iv, Mean): 482022 fmol | AUCTmax ([1]; Route iv, Min): 459180 fmol·h | AUClast ([1]; Route iv, Min): 2368127 fmol·h | Dlast ([1]; Route iv, Min): 19716 fmol | Dmax ([1]; Route iv, Min): 229590 fmol | AUCTmax ([1]; Route po, Max): 1882171 fmol·h | AUClast ([1]; Route po, Max): 6993866 fmol·h | Dlast ([1]; Route po, Max): 133040 fmol | Dmax ([1]; Route po, Max): 941085 fmol | AUCTmax ([1]; Route po, Mean): 1128830 fmol·h | AUClast ([1]; Route po, Mean): 4426871 fmol·h | Dlast ([1]; Route po, Mean): 66360 fmol | Dmax ([1]; Route po, Mean): 564415 fmol | AUCTmax ([1]; Route po, Min): 710260 fmol·h | AUClast ([1]; Route po, Min): 2239453 fmol·h | Dlast ([1]; Route po, Min): 19395 fmol | Dmax ([1]; Route po, Min): 355130 fmol | Tmax ([1]; route iv, individual subjects 1-8, period 1 or 2): 4 h | Tfirst ([1]; route iv, individual subjects 1-8, period 1 or 2, dosing period 1): 4 h | Tfirst ([1]; route iv, individual subjects 1-8, period 1 or 2, dosing period 2): 4 h | AUCTmax [1, 4]: 684594 fmol·h and 543376 fmol·h and 639322 fmol·h and 459180 fmol·h | AUClast [1, 4]: 2934335 fmol·h and 2573446 fmol·h and 2551259 fmol·h and 2368127 fmol·h | Dlast [1, 4]: 32699 fmol and 40072 fmol and 41355 fmol and 19716 fmol | Dmax [1, 4]: 342297 fmol and 271688 fmol and 319661 fmol and 229590 fmol | Tlast [1, 4]: 24 h | AUCTmax [1, 5]: 1207722 fmol·h and 1479193 fmol·h and 1489152 fmol·h and 1209818 fmol·h | AUClast [1, 5]: 5505102 fmol·h and 5554250 fmol·h and 6540408 fmol·h and 5220702 fmol·h | Dlast [1, 5]: 48888 fmol and 88098 fmol and 109317 fmol and 114767 fmol | Dmax [1, 5]: 603861 fmol and 739597 fmol and 744576 fmol and 604909 fmol | Tlast [1, 5]: 24 hr (3×) and 16 hr | Tmax ([1]; route po, individual subjects 1-8, period 1 or 2): 4 h | Tfirst [1, 6]: 4 h | Tlast [1, 6]: 24 h | Tfirst [1, 7]: 4 h | Tlast [1, 7]: 24 h | AUCTmax [1, 8]: 727839 fmol·h and 710260 fmol·h and 727119 fmol·h and 748180 fmol·h | AUClast [1, 8]: 2696170 fmol·h and 2239453 fmol·h and 2618588 fmol·h and 2620500 fmol·h | Dlast [1, 8]: 22280 fmol and 30936 fmol and 19395 fmol and 31737 fmol | Dmax [1, 8]: 363920 fmol and 355130 fmol and 363559 fmol and 374090 fmol | AUCTmax [1, 9]: 1882171 fmol·h and 1326533 fmol·h and 1425912 fmol·h and 1482625 fmol·h | AUClast [1, 9]: 6993866 fmol·h and 6127092 fmol·h and 6093252 fmol·h and 6026045 fmol·h | Dlast [1, 9]: 80465 fmol and 133040 fmol and 109798 fmol and 103226 fmol | Dmax [1, 9]: 941085 fmol and 663266 fmol and 712956 fmol and 741313 fmol | EC50 ([2]; read-out: EC50 (CEM) HIV-1 (IIIB)): 40 ± 8.2 µM | EC50 ([2]; read-out: EC50 (CEM) HIV-1(IIIB)): 43 ± 5.8 µM

NCC(N)=O [G-NH2, glycinamide]
Visible syncytia ([3]; 100 μM in boiled RPMI++): positive | Visible syncytia ([3]; 100 μM in normal RPMI++ (10% FCS)): negative | inhibition of replication and/or propagation of HIV by visual inspection ([3]; boiled fetal calf serum): did not
